The values that follow come from US20160264565A1, “CRYSTALLINE DASATINIB PROCESS” (SHILPA MEDICARE LIMITED, priority 2013, published 2016).

Data set [1] can be described thus: Stability of the crystal form on drying. The data set is classed as physicochemical. The conditions noted are these: drying for more than 20 hrs at 60-65° C. On the procedure: (§1) This stable form thus, offers various advantages in terms of storage, shelf life and favorable impurity profile.
(§2) The new stable crystalline Form-SDI is characterized by 3-methylbutan-1-ol content in range of 10-16% w/w. […] 3-methylbutan-1-ol content even on drying for more than 20 hrs at 60-65° C. This offers advantages for large scale manufacturing in terms of handling, storage, shelf life and favorable impurity profile.

Data set [2] can be described thus: Stability on handling and storage. The conditions noted are these: handle and store for longer time. The data set is classed as physicochemical. On the procedure: as §1, §2

Regarding `Cc1nc(Nc2ncc(C(=O)Nc3c(C)cccc3Cl)s2)cc(N2CCN(CCO)CC2)n1` [Crystalline Form-SDI of Dasatinib, N-(2-chloro-6-methylphenyl)-2-[[6-[4-(2-hydroxyethyl)-1-piperazinyl]-2-methyl-4-pyrimidinyl]amino]-5-thiazolecarboxamide], in data set [1], the “stoichiometry (3-methylbutan-1-ol content) on drying” value was “retains its stoichiometry”. Also, the “change in morphology and physicochemical characteristics on handling and storage for longer time” value in data set [2] is given as “without any significant or measurable change”; in data set [2] (listed as Form-SDI) it was “without any measurable change”.
